{
  "source": "patent US4593043A",
  "about": "“Mercapto acyl-carnitines and pharmaceutical compositions containing same” (Sigma-Tau Industrie Farmaceutiche Riunite S.p.A., priority 1981, dated 1986)",
  "key": {"[1]": {"assay": "Acute toxicity in the mouse, Weil method", "settings": "in vivo, ip", "source_text": "The acute toxicity of the compounds of general formula (I) has been studied in the mouse with the Weil method (Weil C. S., Biometer. J. 8, 249, 1952).\nThe LD50 values of some compounds illustrated in Table I, indicate that the compounds are remarkably well tolerated. PG,20\ngeneral formula (I). Weil's method (N = 5, K = 4) Cl = hydro-"}, "[2]": {"assay": "Mucolytic activity in vitro on human sputum (thromboelastograph, method of Morandini et al.)", "settings": "for Percentage drop ± s.e. of the tracing versus maximum peak (mucolytic activity index), dilution 1/30: 1 ml of a 10% solution at dilution 1/30; for Percentage drop ± s.e. of the tracing versus maximum peak (mucolytic activity index), dilution 1/60: 1 ml of a 10% solution at dilution 1/60", "description": "The tests were carried out in vitro by using the method disclosed by Morandini et al. (Lotta contro la tubercolosi 47, n. 4, 1977). A thromboelastograph was used to follow the variations induced by the compounds of general formula (I) and acetylcisteine on the rheological properties of human sputum."}, "bronchial secretion": {"tested_on": "bronchial secretion", "assay": "Expectorant activity (bronchial secretion), method of Perry et al.", "type": "in vivo, male rabbits", "settings": "rabbits; for Percentage variations of bronchial secretion, 1 hour: 1 hour after administration; for Percentage variations of bronchial secretion, 2 hours: 2 hours after administration; for Percentage variations of bronchial secretion, 4 hours: 4 hours after administration", "description": "The tests were carried out on male rabbits, weighing 2-3 Kg, anesthetized with ethyl urethane, by following the method disclosed by Perry et al. (J. Pharm. Exp. Ther. 73, 65, 1941).\nEach cannula was connected to a feeding device which delivered a steady flow-rate of pre-heated air (36°-38° C.) at constant humidity (80%). At the lower end of each cannula, a graduated cylinder was fitted, wherein the bronchial secretion was collected. All of the animals breathed spontaneously and consequently they self-regulated the air intake suitable for normal respiration. […] Each dose of drug was administered to 5 animals. The control animals (8) were given water only. The amount of secretion was determined after 1, 2 and 4 hours from administration."}, "[3]": {"tested_on": "burned cutaneous area of the back", "assay": "Cutaneous regeneration from burns", "type": "in vivo", "settings": "rabbits, oral, 20 mg Kg^-1 once a day for seven days; for Percentage of regenerated tissue, 4th day: 4th day from treatment; for Percentage of regenerated tissue, 8th day: 8th day from treatment", "description": "The ability of the compounds of formula (I) to speed up the cutaneous regeneration from burns has been tested in rabbits.\nA 4 cm^2 cutaneous area of the average-top zone of the test animal back was burned.\nThe compounds were orally administered in aqueous solution at the dose of 20 mg Kg^-1 once a day for seven days. The area of cutaneous regeneration, i.e. the area of the newly formed tissue was then measured (Table III)."}, "[4]": {"tested_on": "damage provoked by irradiation in rats", "assay": "Protection against X-ray exposure (survival after irradiation)", "type": "in vivo, Albino Wister rats", "settings": "30-40 mg Kg^-1 1 hour before irradiation and 15 mg Kg^-1 per day in the subsequent 20 days", "description": "The effect of the compounds of formula (I) towards the damages provoked by X-ray exposure was studied.\nThe experiment animals, Albino Wister rats, treated with the compounds under examination (30-40 mg Kg^-1 1 hour before irradiation and 15 mg Kg^-1 per day in the subsequent 20 days) were irradiated and checked over a time period to detect the onset of toxic effects and the time of survival with respect to the control group. […]"}, "[5]": {"settings": "mice, ep, Weil's method (N = 5, K = 4)"}},
  "note": "Where a name gives a salt, the structure may show the parent alone.",
  "data": [
    {"smiles": "CCC(S)C(=O)OC(CC(=O)O)C[N+](C)(C)C", "note": "(stereo not shown) [2-mercapto butyryl carnitine Cl]", "values": [
      {"measurement": "LD50", "setting": "[1]", "result": 294, "unit": "mg/kg"},
      {"measurement": "Percentage drop ± s.e. of the tracing versus maximum peak (mucolytic activity index), dilution 1/30", "setting": "[2]", "result": "85.3 ± 4", "unit": "%"},
      {"measurement": "Percentage drop ± s.e. of the tracing versus maximum peak (mucolytic activity index), dilution 1/60", "setting": "[2]", "result": "38.4 ± 5", "unit": "%"},
      {"measurement": "Percentage variations of bronchial secretion, 1 hour", "setting": "bronchial secretion; 15 mg oral", "result": "+0.5%"},
      {"measurement": "Percentage variations of bronchial secretion, 2 hours", "setting": "bronchial secretion; 15 mg oral", "result": "+0.9%"},
      {"measurement": "Percentage variations of bronchial secretion, 4 hours", "setting": "bronchial secretion; 15 mg oral", "result": "+2.3%"},
      {"measurement": "Percentage of regenerated tissue, 4th day", "setting": "[3]", "result": 35, "unit": "%"},
      {"measurement": "Percentage of regenerated tissue, 8th day", "setting": "[3]", "result": 95, "unit": "%"},
      {"measurement": "Percentage of surviving animals", "setting": "[4]", "result": 70, "unit": "%"},
      {"measurement": "Percentage of surviving animals, day 10 from irradiation", "setting": "[4]", "result": 100, "unit": "%"},
      {"measurement": "Percentage of surviving animals, day 20 from irradiation", "setting": "[4]", "result": 85, "unit": "%"}
    ]},
    {"smiles": "CC(S)C(=O)OC(CC(=O)O)C[N+](C)(C)C", "note": "(stereo not shown) [2-mercapto propionyl carnitine Cl]", "values": [
      {"measurement": "LD50", "setting": "[1]", "result": 294, "unit": "mg/kg"},
      {"measurement": "Percentage drop ± s.e. of the tracing versus maximum peak (mucolytic activity index), dilution 1/30", "setting": "[2]", "result": "85.4 ± 6", "unit": "%"},
      {"measurement": "Percentage drop ± s.e. of the tracing versus maximum peak (mucolytic activity index), dilution 1/60", "setting": "[2]", "result": "46.5 ± 6", "unit": "%"},
      {"measurement": "Percentage variations of bronchial secretion, 1 hour", "setting": "bronchial secretion; 10 mg oral", "result": "+0.1%"},
      {"measurement": "Percentage variations of bronchial secretion, 2 hours", "setting": "bronchial secretion; 10 mg oral", "result": "+0.2%"},
      {"measurement": "Percentage variations of bronchial secretion, 4 hours", "setting": "bronchial secretion; 10 mg oral", "result": "+2.0%"},
      {"measurement": "Percentage of regenerated tissue, 4th day", "setting": "[3]", "result": 30, "unit": "%"},
      {"measurement": "Percentage of regenerated tissue, 8th day", "setting": "[3]", "result": 65, "unit": "%"},
      {"measurement": "Percentage of surviving animals", "setting": "[4]", "result": 45, "unit": "%"},
      {"measurement": "Percentage of surviving animals, day 10 from irradiation", "setting": "[4]", "result": 80, "unit": "%"},
      {"measurement": "Percentage of surviving animals, day 20 from irradiation", "setting": "[4]", "result": 70, "unit": "%"}
    ]},
    {"smiles": "C[N+](C)(C)CC(CC(=O)O)OC(=O)CCS", "note": "(stereo not shown) [3-mercapto propionyl carnitine Cl, 3-mercapto propionyl carnitine hydrochloride]", "values": [
      {"measurement": "LD50", "setting": "[1]; [5]", "result": 312, "unit": "mg/kg"},
      {"measurement": "Percentage variations of bronchial secretion, 1 hour", "setting": "bronchial secretion; 15 mg oral", "result": -0.2, "unit": "%"},
      {"measurement": "Percentage variations of bronchial secretion, 2 hours", "setting": "bronchial secretion; 15 mg oral", "result": "+0.4%"},
      {"measurement": "Percentage variations of bronchial secretion, 4 hours", "setting": "bronchial secretion; 15 mg oral", "result": "+1.1%"},
      {"measurement": "Percentage of regenerated tissue, 4th day", "setting": "[3]", "result": 40, "unit": "%"},
      {"measurement": "Percentage of regenerated tissue, 8th day", "setting": "[3]", "result": 80, "unit": "%"},
      {"measurement": "Percentage of surviving animals", "setting": "[4]", "result": 60, "unit": "%"},
      {"measurement": "Percentage of surviving animals, day 10 from irradiation", "setting": "[4]", "result": 90, "unit": "%"},
      {"measurement": "Percentage of surviving animals, day 20 from irradiation", "setting": "[4]", "result": 80, "unit": "%"}
    ]},
    {"smiles": "C[N+](C)(C)CC(CC(=O)O)OC(=O)CCCS", "note": "(stereo not shown) [4-mercapto butyryl carnitine Cl, 4-mercapto butyryl carnitine hydrochloride]", "values": [
      {"measurement": "LD50", "setting": "[1]; [5]", "result": 303, "unit": "mg/kg"},
      {"measurement": "Percentage variations of bronchial secretion, 1 hour", "setting": "bronchial secretion; 20 mg oral", "result": "+0.4%"},
      {"measurement": "Percentage variations of bronchial secretion, 2 hours", "setting": "bronchial secretion; 20 mg oral", "result": "+0.6%"},
      {"measurement": "Percentage variations of bronchial secretion, 4 hours", "setting": "bronchial secretion; 20 mg oral", "result": "+1.2%"},
      {"measurement": "Percentage of regenerated tissue, 4th day", "setting": "[3]", "result": 25, "unit": "%"},
      {"measurement": "Percentage of regenerated tissue, 8th day", "setting": "[3]", "result": 70, "unit": "%"},
      {"measurement": "Percentage of surviving animals", "setting": "[4]", "result": 55, "unit": "%"},
      {"measurement": "Percentage of surviving animals, day 10 from irradiation", "setting": "[4]", "result": 100, "unit": "%"},
      {"measurement": "Percentage of surviving animals, day 20 from irradiation", "setting": "[4]", "result": 80, "unit": "%"}
    ]},
    {"smiles": "C[N+](C)(C)CC(CC(=O)O)OC(=O)CCCCS", "note": "(stereo not shown) [5-mercapto valeryl carnitine Cl]", "values": [
      {"measurement": "LD50", "setting": "[1]", "result": 281, "unit": "mg/kg"},
      {"measurement": "Percentage drop ± s.e. of the tracing versus maximum peak (mucolytic activity index), dilution 1/30", "setting": "[2]", "result": "90.3 ± 6", "unit": "%"},
      {"measurement": "Percentage drop ± s.e. of the tracing versus maximum peak (mucolytic activity index), dilution 1/60", "setting": "[2]", "result": "48.3 ± 6", "unit": "%"},
      {"measurement": "Percentage variations of bronchial secretion, 1 hour", "setting": "bronchial secretion; 15 mg oral", "result": "+0.6%"},
      {"measurement": "Percentage variations of bronchial secretion, 2 hours", "setting": "bronchial secretion; 15 mg oral", "result": -0.3, "unit": "%"},
      {"measurement": "Percentage variations of bronchial secretion, 4 hours", "setting": "bronchial secretion; 15 mg oral", "result": "+1.4%"},
      {"measurement": "Percentage of regenerated tissue, 4th day", "setting": "[3]", "result": 20, "unit": "%"},
      {"measurement": "Percentage of regenerated tissue, 8th day", "setting": "[3]", "result": 60, "unit": "%"},
      {"measurement": "Percentage of surviving animals", "setting": "[4]", "result": 50, "unit": "%"},
      {"measurement": "Percentage of surviving animals, day 10 from irradiation", "setting": "[4]", "result": 95, "unit": "%"},
      {"measurement": "Percentage of surviving animals, day 20 from irradiation", "setting": "[4]", "result": 70, "unit": "%"}
    ]},
    {"smiles": "CC(=O)N[C@@H](CS)C(=O)O", "note": "[Acetylcysteine, reference compound]", "values": [
      {"measurement": "Percentage drop ± s.e. of the tracing versus maximum peak (mucolytic activity index), dilution 1/30", "setting": "[2]", "result": "75.7 ± 7", "unit": "%"},
      {"measurement": "Percentage drop ± s.e. of the tracing versus maximum peak (mucolytic activity index), dilution 1/60", "setting": "[2]", "result": "22.3 ± 4", "unit": "%"}
    ]},
    {"smiles": "C[N+](C)(C)CC(CC(=O)O)OC(=O)CS", "note": "(stereo not shown) [mercapto acetyl carnitine Cl]", "values": [
      {"measurement": "LD50", "setting": "[1]", "result": 308, "unit": "mg/kg"},
      {"measurement": "Percentage drop ± s.e. of the tracing versus maximum peak (mucolytic activity index), dilution 1/30", "setting": "[2]", "result": "78.3 ± 5", "unit": "%"},
      {"measurement": "Percentage drop ± s.e. of the tracing versus maximum peak (mucolytic activity index), dilution 1/60", "setting": "[2]", "result": "45.2 ± 4", "unit": "%"},
      {"measurement": "Percentage variations of bronchial secretion, 1 hour", "setting": "bronchial secretion; 10 mg oral", "result": "+0.3%"},
      {"measurement": "Percentage variations of bronchial secretion, 2 hours", "setting": "bronchial secretion; 10 mg oral", "result": "+0.9%"},
      {"measurement": "Percentage variations of bronchial secretion, 4 hours", "setting": "bronchial secretion; 10 mg oral", "result": "+2.4%"},
      {"measurement": "Percentage of regenerated tissue, 4th day", "setting": "[3]", "result": 35, "unit": "%"},
      {"measurement": "Percentage of regenerated tissue, 8th day", "setting": "[3]", "result": 70, "unit": "%"},
      {"measurement": "Percentage of surviving animals", "setting": "[4]", "result": 30, "unit": "%"},
      {"measurement": "Percentage of surviving animals, day 10 from irradiation", "setting": "[4]", "result": 85, "unit": "%"},
      {"measurement": "Percentage of surviving animals, day 20 from irradiation", "setting": "[4]", "result": 45, "unit": "%"}
    ]}
  ]
}
